For 27 compounds, IC50 results are on record in patent publication EP4043466B1, “PRC2 INHIBITORS” (Mirati Therapeutics, Inc., priority 2018, dated 2019).

This assay addresses purified human, His-tagged PRC2 complex (Homo sapiens, UniProt O75530+Q15910). Put plainly: Hot Spot HMT assay: inhibition of PRC2 enzymatic activity (transfer of tritiated methyl from SAM to core histone, filter binding). The format is biochemical. Particulars: Inhibition of PRC2-mediated enzymatic activity; 10 nM PRC2 complex, 0.05 mg/ml core histone H3, 1 uM 3H-SAM, 1 hr at 30°C. The source says:
The assay uses purified human, His-tagged PRC2 complex, including N-terminal His-tagged EZH2 enzyme, N-terminal Flag-tagged embryonic ectoderm development protein (EED), N-terminal His-tagged suppressor of zeste 12 (SUZ12), N-terminal His-tagged AEBP2, and N-terminal His-tagged RbAp48. In this assay, the transfer of the tritiated methyl group from radiolabeled S-adenosyl methionine (SAM) to purified core histone protein by EZH2 is quantitated after filtration to determine the activity of the core PRC2 complex in the presence and absence of compound.
The initial starting concentration for the serial dilutions of each compound was 1.0 µM. […] SAH (S-(5-adenosyl)-L-homocysteine) was used as a positive control for assay validation.
An aliquot of each serial dilution of test compound was added to deep 384 well plate using Acoustic Technology instrument (Echo 550, LabCyte) containing reaction buffer (50 mM Tris-HCl (pH 8.)), 0.01% Brij35, 1 mM EDTA, 1 mM DTT, 1 mM PMSF and 1% DMSO), 10 nM purified PRC2 complex and 0.05 mg/ml core histone H3 in a 5 µl volume. The reaction was mixed gently and then pre-incubated for 20 min at 30°C. The enzymatic reaction was initiated by adding 1 uM S-Adenosyl-L-[methyl - ^3H]methionine and incubated for 1 hr at 30°C. After 1 hr, the reaction product was detected using a filter binding method and the amount of tritiated H3 core histone was quantitated using a scintillation counter.

purified human, His-tagged PRC2 complex, sequence (Q15910 whole entry): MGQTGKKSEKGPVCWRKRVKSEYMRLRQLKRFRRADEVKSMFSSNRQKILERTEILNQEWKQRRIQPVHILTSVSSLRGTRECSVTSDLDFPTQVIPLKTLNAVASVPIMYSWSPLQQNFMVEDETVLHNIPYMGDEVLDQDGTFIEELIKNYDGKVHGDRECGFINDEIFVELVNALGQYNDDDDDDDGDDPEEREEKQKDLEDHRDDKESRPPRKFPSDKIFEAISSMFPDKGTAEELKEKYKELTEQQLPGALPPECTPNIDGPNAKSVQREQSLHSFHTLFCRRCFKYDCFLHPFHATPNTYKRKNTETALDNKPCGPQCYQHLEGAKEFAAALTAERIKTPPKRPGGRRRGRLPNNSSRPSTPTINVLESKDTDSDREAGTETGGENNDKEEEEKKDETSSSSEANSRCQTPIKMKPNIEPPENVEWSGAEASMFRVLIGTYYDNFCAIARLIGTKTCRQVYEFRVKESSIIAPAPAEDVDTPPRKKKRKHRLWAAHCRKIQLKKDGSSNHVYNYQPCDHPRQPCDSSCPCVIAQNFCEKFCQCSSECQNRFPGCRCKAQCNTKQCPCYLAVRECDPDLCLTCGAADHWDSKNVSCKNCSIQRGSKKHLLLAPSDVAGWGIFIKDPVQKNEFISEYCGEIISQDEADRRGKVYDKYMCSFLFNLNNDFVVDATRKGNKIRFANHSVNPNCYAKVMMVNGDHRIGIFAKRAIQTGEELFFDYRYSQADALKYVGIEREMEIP
purified human, His-tagged PRC2 complex, sequence (O75530 whole entry): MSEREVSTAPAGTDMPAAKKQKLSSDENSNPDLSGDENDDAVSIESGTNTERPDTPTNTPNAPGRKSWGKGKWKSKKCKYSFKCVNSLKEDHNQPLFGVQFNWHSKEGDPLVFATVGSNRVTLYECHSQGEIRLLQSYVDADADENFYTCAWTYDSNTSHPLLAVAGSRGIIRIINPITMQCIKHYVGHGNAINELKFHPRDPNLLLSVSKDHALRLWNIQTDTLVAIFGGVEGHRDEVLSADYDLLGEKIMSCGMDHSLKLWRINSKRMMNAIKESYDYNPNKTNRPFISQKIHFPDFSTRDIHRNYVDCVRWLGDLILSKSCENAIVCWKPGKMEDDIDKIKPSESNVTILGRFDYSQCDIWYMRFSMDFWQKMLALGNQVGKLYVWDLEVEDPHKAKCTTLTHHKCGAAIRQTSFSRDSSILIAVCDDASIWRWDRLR
purified human, His-tagged PRC2 complex, sequence (Q15022 whole entry partner): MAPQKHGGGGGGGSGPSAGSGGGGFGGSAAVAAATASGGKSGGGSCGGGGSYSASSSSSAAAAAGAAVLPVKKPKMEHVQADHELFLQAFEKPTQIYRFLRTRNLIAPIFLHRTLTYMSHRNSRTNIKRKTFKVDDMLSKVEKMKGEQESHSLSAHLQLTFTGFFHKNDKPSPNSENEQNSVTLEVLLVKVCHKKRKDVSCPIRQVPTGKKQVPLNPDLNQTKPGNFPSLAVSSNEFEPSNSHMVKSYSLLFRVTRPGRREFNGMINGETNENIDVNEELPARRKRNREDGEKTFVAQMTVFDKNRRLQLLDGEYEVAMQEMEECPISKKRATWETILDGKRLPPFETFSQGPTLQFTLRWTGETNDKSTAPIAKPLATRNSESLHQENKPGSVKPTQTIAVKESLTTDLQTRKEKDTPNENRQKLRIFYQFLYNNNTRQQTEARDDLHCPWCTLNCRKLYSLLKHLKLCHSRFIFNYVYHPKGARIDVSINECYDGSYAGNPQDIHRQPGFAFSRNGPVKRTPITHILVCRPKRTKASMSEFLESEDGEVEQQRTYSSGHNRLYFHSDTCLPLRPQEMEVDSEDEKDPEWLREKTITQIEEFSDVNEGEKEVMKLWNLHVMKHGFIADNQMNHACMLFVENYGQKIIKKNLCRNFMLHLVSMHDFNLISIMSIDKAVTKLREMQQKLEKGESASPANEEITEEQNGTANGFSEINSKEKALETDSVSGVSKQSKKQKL
purified human, His-tagged PRC2 complex, sequence (Q6ZN18 whole entry partner): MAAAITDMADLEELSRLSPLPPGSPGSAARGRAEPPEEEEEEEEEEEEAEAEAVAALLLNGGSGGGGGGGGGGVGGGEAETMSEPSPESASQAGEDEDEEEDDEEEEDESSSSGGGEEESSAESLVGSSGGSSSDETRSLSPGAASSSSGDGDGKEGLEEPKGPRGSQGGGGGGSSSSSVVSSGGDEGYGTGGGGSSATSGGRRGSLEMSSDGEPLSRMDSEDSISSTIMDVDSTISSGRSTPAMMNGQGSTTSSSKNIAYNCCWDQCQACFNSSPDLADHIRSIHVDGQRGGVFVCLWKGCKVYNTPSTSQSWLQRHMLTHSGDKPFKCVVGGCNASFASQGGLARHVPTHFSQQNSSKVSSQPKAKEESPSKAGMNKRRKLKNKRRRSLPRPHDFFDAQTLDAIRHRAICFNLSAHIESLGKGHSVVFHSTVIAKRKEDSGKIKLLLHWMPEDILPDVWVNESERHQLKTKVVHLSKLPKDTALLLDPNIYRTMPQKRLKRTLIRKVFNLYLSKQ
purified human, His-tagged PRC2 complex, sequence (Q09028 whole entry partner): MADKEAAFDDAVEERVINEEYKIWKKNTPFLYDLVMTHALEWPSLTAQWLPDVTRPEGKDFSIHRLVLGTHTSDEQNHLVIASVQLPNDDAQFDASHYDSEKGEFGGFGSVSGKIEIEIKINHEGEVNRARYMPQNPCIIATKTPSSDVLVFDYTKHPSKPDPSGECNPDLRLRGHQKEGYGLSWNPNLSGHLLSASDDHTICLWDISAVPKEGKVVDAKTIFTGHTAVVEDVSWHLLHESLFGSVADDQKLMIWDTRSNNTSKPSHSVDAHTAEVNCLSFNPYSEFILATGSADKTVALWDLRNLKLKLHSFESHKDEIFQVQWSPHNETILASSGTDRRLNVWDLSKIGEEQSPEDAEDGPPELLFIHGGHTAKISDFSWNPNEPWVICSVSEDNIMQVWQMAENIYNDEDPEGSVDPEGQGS

Broadly, the IC50 is the concentration that gives 50% inhibition. The compound `COc1cc(C)c(-c2cnc(NCc3c(F)ccc4c3CCO4)n3cc(C(N)=O)nc23)cn1` [Example 14, 5-(((5-fluoro-2,3-dihydrobenzofuran-4-yl)methyl)amino)-8-(6-methoxy-4-methylpyridin-3-yl)imidazo[1,2-c]pyrimidine-2-carboxamide] returned an IC50 of 100 to 500 nM. Then `N#Cc1cn2c(NCc3c(F)ccc4c3CCO4)ncc(-c3ccc(C(F)(F)F)nc3)c2n1` [Example 126, 5-(((5-fluoro-2,3-dihydrobenzofuran-4-yl)methyl)amino)-8-(6-(trifluoromethyl)pyridin-3-yl)imidazo[1,2-c]pyrimidine-2-carbonitrile], with 100 to 500 nM; and `CC(=O)Nc1cc(-c2cnc(NCc3c(F)ccc4c3CCO4)n3cc(C#N)nc23)ccn1` [Example 131, N-(4-(2-cyano-5-(((5-fluoro-2,3-dihydrobenzofuran-4-yl)methyl)amino)imidazo[1,2-c]pyrimidin-8-yl)pyridin-2-yl)acetamide], with below 100 nM. In the case of `N#Cc1cn2c(NCc3c(F)ccc4c3CCO4)ncc(-c3cnn(C4CCOCC4)c3)c2n1` [Example 120, 5-(((5-fluoro-2,3-dihydrobenzofuran-4-yl)methyl)amino)-8-(1-(tetrahydro-2H-pyran-4-yl)-1H-pyrazol-4-yl)imidazo[1,2-c]pyrimidine-2-carbonitrile], the IC50 is above 500 nM. Turning to `Cc1cc(-c2cnc(NCc3cccc4c3OCO4)n3cc(C#N)nc23)n(C)n1` [Example 27, 5-((benzo[d][1,3]dioxol-4-ylmethyl)amino)-8-(1,3-dimethyl-1H-pyrazol-5-yl)imidazo[1,2-c]pyrimidine-2-carbonitrile], the IC50 is above 500 nM. Then `Cc1c(-c2cnc(NCc3c(F)ccc4c3CCO4)n3cc(C(=O)O)nc23)cnn1C(C)C` [Example 8, 5-(((5-fluoro-2,3-dihydrobenzofuran-4-yl)methyl)amino)-8-(1-isopropyl-5-methyl-1H-pyrazol-4-yl)imidazo[1,2-c]pyrimidine-2-carboxylic acid], with below 100 nM; and `CN(C)CCCn1cc(-c2cnc(NCc3c(F)ccc4c3CCO4)n3cc(C#N)nc23)cn1` [Example 103, 8-(1-(3-(dimethylamino)propyl)-1H-pyrazol-4-yl)-5-(((5-fluoro-2,3-dihydrobenzofuran-4-yl)methyl)amino)imidazo[1,2-c]pyrimidine-2-carbonitrile], with 100 to 500 nM. The compound `Cc1cc(-c2cnc(NCc3c(F)ccc4occc34)n3cc(C(N)=O)nc23)n(C)n1` [Example 18, 8-(1,3-dimethyl-1H-pyrazol-5-yl)-5-(((5-fluorobenzofuran-4-yl)methyl)amino)imidazo[1,2-c]pyrimidine-2-carboxamide] registered an IC50 below 100 nM.

For the compound `N#Cc1cn2c(NCc3c(F)ccc4c3CCO4)ncc(-c3ccc(C4COCCN4)cc3)c2n1` (stereo not drawn) [Example 225, 5-(((5-fluoro-2,3-dihydrobenzofuran-4-yl)methyl)amino)-8-(4-(morpholin-3-yl)phenyl)imidazo[1,2-c]pyrimidine-2-carbonitrile], the IC50 is below 100 nM. The compound `Cc1n[nH]cc1-c1cnc(NCc2c(F)ccc3c2CCO3)n2cc(C#N)nc12` [Example 79, 5-(((5-fluoro-2,3-dihydrobenzofuran-4-yl)methyl)amino)-8-(3-methyl-1H-pyrazol-4-yl)imidazo[1,2-c]pyrimidine-2-carbonitrile] registered a 50% inhibitory concentration (IC50) below 100 nM. The compound `CN1CCC1c1ccc(-c2cnc(NCc3c(F)ccc4c3CCO4)n3cc(C#N)nc23)cc1` (stereo not drawn) [Example 221, 5-(((5-fluoro-2,3-dihydrobenzofuran-4-yl)methyl)amino)-8-(4-(1-methylazetidin-2-yl)phenyl)imidazo[1,2-c]pyrimidine-2-carbonitrile] registered an IC50 below 100 nM.

Compound `Cc1nn(C(C)C)cc1-c1cnc(NCc2c(F)ccc3c2CCO3)n2cc(C#N)nc12` [Example 23, 5-(((5-fluoro-2,3-dihydrobenzofuran-4-yl)methyl)amino)-8-(1-isopropyl-3-methyl-1H-pyrazol-4-yl)imidazo[1,2-c]pyrimidine-2-carbonitrile] displayed an IC50 of 100 to 500 nM.

`N#Cc1cn2c(NCc3c(F)ccc4c3CCO4)ncc(-c3ccc(CN4CCC(F)(F)C4)cc3)c2n1` [Example 55, 8-(4-((3,3-difluoropyrrolidin-1-yl)methyl)phenyl)-5-(((5-fluoro-2,3-dihydrobenzofuran-4-yl)methyl)amino)imidazo[1,2-c]pyrimidine-2-carbonitrile] gave an IC50 below 100 nM. Take `CN(C)Cc1ncc(-c2cnc(NCc3c(F)ccc4c3CCO4)n3cc(C#N)nc23)cn1` [Example 216, 8-(2-((dimethylamino)methyl)pyrimidin-5-yl)-5-(((5-fluoro-2,3-dihydrobenzofuran-4-yl)methyl)amino)imidazo[1,2-c]pyrimidine-2-carbonitrile]: the IC50 is below 100 nM. Then `COc1cc(C)c(-c2cnc(NCc3c(F)ccc4c3CCO4)n3cc(C#N)nc23)cn1` [Example 24, 5-(((5-fluoro-2,3-dihydrobenzofuran-4-yl)methyl)amino)-8-(6-methoxy-4-methylpyridin-3-yl)imidazo[1,2-c]pyrimidine-2-carbonitrile], with 100 to 500 nM; and `COc1cncc(-c2cnc(NCc3c(F)ccc4c3CCO4)n3cc(C#N)nc23)c1` [Example 93, 5-(((5-fluoro-2,3-dihydrobenzofuran-4-yl)methyl)amino)-8-(5-methoxypyridin-3-yl)imidazo[1,2-c]pyrimidine-2-carbonitrile], with 100 to 500 nM; and `N#Cc1cn2c(NCc3c(F)ccc4c3CCO4)ncc(-c3cnccc3Cl)c2n1` [Example 109, 8-(4-chloropyridin-3-yl)-5-(((5-fluoro-2,3-dihydrobenzofuran-4-yl)methyl)amino)imidazo[1,2-c]pyrimidine-2-carbonitrile], with below 100 nM. For the compound `CN(C)C(=O)c1ccc(-c2cnc(NCc3c(F)ccc4c3CCO4)n3cc(C#N)nc23)c(Cl)c1F` [Example 34, 3-chloro-4-(2-cyano-5-(((5-fluoro-2,3-dlhydrobenzofuran-4-yl)methyl)amino)imidazo[1,2-c]pyrimidin-8-yl)-2-fluoro-N,N-dimethylbenzamide], the IC50 is below 100 nM.

In turn, `Cc1cc(-c2cnc(NCc3c(F)ccc4c3C(O)CO4)n3cc(C#N)nc23)n(C)n1` (stereo not drawn) [Example 155, 8-(1,3-dimethyl-1H-pyrazol-5-yl)-5-(((5-fluoro-3-hydroxy-2,3-dihydrobenzofuran-4-yl)methyl)amino)imidazo[1,2-c]pyrimidine-2-carbonitrile] came in with a half-maximal inhibitory concentration (IC50) below 100 nM. Compound `N#Cc1cn2c(NCc3c(F)ccc4c3CCO4)ncc(-c3cnn(Cc4cccnc4)c3)c2n1` [Example 101, 5-(((5-fluoro-2,3-dihydrobenzofuran-4-yl)methyl)amino)-8-(1-(pyridin-3-ylmethyl)-1H-pyrazol-4-yl)imidazo[1,2-c]pyrimidine-2-carbonitrile] showed an IC50 of 100 to 500 nM. The compound `Cc1ncccc1-c1cnc(NCc2c(F)ccc3occc23)n2cc(C#N)nc12` [Example 22, 5-(((5-fluorobenzofuran-4-yl)methyl)amino)-8-(2-methylpyridin-3-yl)imidazo[1,2-c]pyrimidine-2-carbonitrile] had a half-inhibitory concentration (IC50) of 100 to 500 nM. With `COc1cc(C)c(-c2cnc(NCc3c(F)ccc4c3CCO4)n3cc(C(=O)O)nc23)cn1` [Example 6, 5-(((5-fluoro-2,3-dihydrobenzofuran-4-yl)methyl)amino)-8-(6-methoxy-4-methylpyridin-3-yl)imidazo[1,2-c]pyrimidine-2-carboxylic acid], the IC50 lay within 100 to 500 nM. Consider `Cc1cn(-c2cnc(NCc3c(F)ccc4c3CCO4)n3cc(C(=O)O)nc23)cn1` [Example 4, 5-(((5-fluoro-2,3-dihydrobenzofuran-4-yl)methyl)amino)-8-(4-methyl-1H-imidazol-1-yl)imidazo[1,2-c]pyrimidine-2-carboxylic acid], for which the IC50 was below 100 nM. In the case of `N#Cc1cn2c(NCc3c(F)ccc4c3CCO4)ncc(-c3cnn(C4CCOC4)c3)c2n1` (stereo not drawn) [Example 107, 5-(((5-fluoro-2,3-dihydrobenzofuran-4-yl)methyl)amino)-8-(1-(tetrahydrofuran-3-yl)-1H-pyrazol-4-yl)imidazo[1,2-c]pyrimidine-2-carbonitrile], the IC50 was 100 to 500 nM.

With `CN(C)Cc1ccc(-c2cnc(NCc3c(F)ccc4c3CCO4)n3cc(C#N)nc23)c(Cl)c1F` [Example 83, 8-(2-chloro-4-((dimethylamino)methyl)-3-fluorophenyl)-5-(((5-fluoro-2,3-dihydrobenzofuran-4-yl)methyl)amino)imidazo[1,2-c]pyrimidine-2-carbonitrile], the IC50 was below 100 nM. Next, `Cc1cc(-c2cnc(NCc3cccc4c3CCO4)n3cc(C(=O)O)nc23)n(C)n1` [Example 10, 5-(((2,3-dihydrobenzofuran-4-yl)methyl)amino)-8-(1,3-dimethyl-1H-pyrazol-5-yl)imidazo[1,2-c]pyrimidine-2-carboxylic acid]: below 100 nM; `Cc1n[nH]c(C)c1-c1cnc(NCc2c(F)ccc3c2CCO3)n2cc(C#N)nc12` [Example 104, 8-(3,5-dimethyl-1H-pyrazol-4-yl)-5-(((5-fluoro-2,3-dihydrobenzofuran-4-yl)methyl)amino)imidazo[1,2-c]pyrimidine-2-carbonitrile]: above 500 nM.
